Values quoted from earlier work as cited in patent US20190054079A1, “ENHANCEMENT OF IMPAIRED MOTOR AND MENTAL FUNCTIONS, USING DEXTROMETHORPHAN AND OXIDASE ENZYME INHIBITOR” (Avanir Pharmaceuticals, Inc., priority 2004, published 2019).

Legend:
P450-2D6 enzyme = P450-2D6 enzyme (Homo sapiens, UniProt P10635); conditions: among known drugs in Inaba et al 1985 and 1986
[1] = tested on: patients suffering from neurological disorders (such as ALS); conditions: DM alone, late 1980's and early 1990's

Sequence of P450-2D6 enzyme (P10635 whole entry): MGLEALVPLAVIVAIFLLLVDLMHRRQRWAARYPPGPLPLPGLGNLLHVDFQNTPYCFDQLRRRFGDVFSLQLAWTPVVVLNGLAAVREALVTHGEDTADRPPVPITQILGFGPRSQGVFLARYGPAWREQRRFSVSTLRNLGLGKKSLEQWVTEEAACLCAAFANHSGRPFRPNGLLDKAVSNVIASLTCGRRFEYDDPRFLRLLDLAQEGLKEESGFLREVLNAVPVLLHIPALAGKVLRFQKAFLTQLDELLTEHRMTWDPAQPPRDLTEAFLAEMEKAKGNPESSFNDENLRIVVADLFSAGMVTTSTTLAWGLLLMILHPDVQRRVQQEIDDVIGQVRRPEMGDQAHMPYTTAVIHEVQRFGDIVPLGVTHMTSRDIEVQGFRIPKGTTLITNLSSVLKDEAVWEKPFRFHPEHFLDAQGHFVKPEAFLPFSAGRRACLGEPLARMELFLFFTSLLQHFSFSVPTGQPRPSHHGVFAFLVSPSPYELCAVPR

Row | Structure (SMILES) | potency of P450-2D6 inhibition (P450-2D6 enzyme) | benefit in slowing progression of neurological diseases [1] | activity at NMDA receptors (NMDA receptors) | activity at sigma receptors (sigma receptors)
1 | C=C[C@H]1C[N@@]2CC[C@H]1C[C@@H]2[C@@H](O)c1ccnc2ccc(OC)cc12 [quinidine] | most potent P450-2D6 inhibitor | – | – | –
2 | COc1ccc2c(c1)[C@@]13CCCC[C@H]1[C@@H](C2)N(C)CC3 [Dextromethorphan, (+)-3-methoxy-N-methylmorphinan] | – | did not show enough benefits | mildly suppresses activity | stimulates activity
